Source: US9265754B2, “Use of 1-{4-[1-(4-cyclohexyl-3-trifluoromethyl-benzyloxyimino)-ethyl]-2-ethyl-benzyl}-azetidine-3-carboxylic acid in treating symptoms associated with rett syndrome” (Novartis AG, priority 2007, dated 2016)

What was measured:
[1] = test system: patients with relapsing MS; test: Phase II trial in relapsing MS: depressive symptoms by Beck Depression Inventory second edition (BDI-II); type: in vivo, human; details: for BDI-II score, change from baseline during core study: 6 months core study
Protocol: In this study, depressive symptoms were assessed by means of the Beck Depression Inventory second edition (BDI-II).
Patients with relapsing MS (relapsing-remitting or secondary progressive) were randomized to receive placebo or FTY720 1.25 or 5 mg/day, for 6 months (the core study). At the end of this period, placebo-treated patients were re-randomized to one of the two FTY720 doses, while those originally randomized to FTY720 continued treatment at the same doses. After approximately 18-24 months, patients receiving FTY720 5 mg, were switched to 1.25 mg in view of evidence that the higher dose conferred no efficacy benefit over the lower dose.
The BDI-II was administered at baseline, and at 3 and 6 months during the core study and at 12 and 24 months during the extension phase (i.e. 6 and 18 months after the start of the extension phase). This is a 21-item self-report scale measuring various symptoms and attitudes associated with depression. Respondents rate depressive symptoms experienced during the past two weeks on a 4-point scale, coded 0 to 3 by increasing order of severity. A total score across all 21 items can be generated, with lower total scores indicating lower overall severity of depressive symptoms. BDI-II total scores of 14 or above are indicative of clinical depression. Ny reduction in the BDI-II score indicated an improvement in depression.
Of the 281 patients originally randomized to treatment, 255 completed the core study. BDI-II scores at baseline and 6 months were available in 239 patients.

[2] = test system: patients with relapsing MS; details: cited from earlier work
BDNF = test: In vivo S1P receptor modulator induced BDNF production (Western blot of cortex); design: species or system rat; details: female DA rats
From the text: Shown on the y-axis is the relative intensity of BDNF signal of animals treated with FTY720 vs control animals that had received vehicle (i.e., ratio of signal from FTY720-treated rats divided by signal from vehicle-treated rats, n=3 rats/group). On the x axis, the first two bars come from the frontal cortex, the second two from the parietal cortex and in each case the white bar represents the vehicle treated animals and the black bar represents the FTY720 treated animals.
N=3 animals each were treated with either vehicle, 0.1 mg/kg/d FTY720, 0.3 mg/kg/d FTY720 or 1 mg/kg/d FTY720.
Female DA rats were treated for 9 days (5 days, 2 day pause, 4 days) with FTY720 p.o.
Expt 1: 0.3 mg/kg/d vs. vehicle.
One day after the last treatment, the rats were perfused with ice-cold PBS and different CNS regions were isolated.
Female DA rats were treated for 9 days (5 days, 2 day pause, 4 days) with FTY720 p.o. 0.1; 0.3 or 1 mg/kg/d vs vehicle

[3] = 281 patients with relapsing MS, 6 months, 1.25 and 5 mg once daily

In the case of CCCCCCCCc1ccc(CCC(N)(CO)CO)cc1 [FTY720, 2-amino-2-[2-(4-octylphenyl)ethyl]propane-1,3-diol], the “BDI-II score, change from baseline during core study” value ([1]; 1.25 mg/day) was “decreased from baseline”, the “change in BDI-II scores from baseline vs placebo-treated patients” value ([1]; 1.25 mg/day, at 6 months) was “significantly greater” and the “BDI-II score, change from baseline during core study” value ([1]; 5.0 mg/day) was “remained consistent”. For the same molecule, the “difference in changes in BDI-II scores between the two doses” value ([1]; 1.25 vs 5.0 mg/day, 5% level) was “not significant”, the “reduction of annualized relapse rate compared with placebo” value [2, 3] was “more than 50%” and the “reduction of gadolinium-enhanced MRI lesions compared with placebo” value [2, 3] was “up to 80%”. For the same molecule, the “low disease activity on MRI and relapses during dose-blinded extension phase” value ([2]; patients treated for up to 24 months) was “sustained”, the “BDNF in the cortex (relative intensity of BDNF signal vs vehicle)” value (BDNF; 9-day treatment, 0.3 mg/kg/d p.o., frontal and parietal cortex, FIG. 1) was “induction of BDNF” and the “BDNF in the cortex, multiple doses” value (BDNF; 9-day treatment, 0.1, 0.3 or 1 mg/kg/d p.o., FIGS. 2A-2B) was “induction of BDNF”.
